Laboratory results reported in ChEMBL document CHEMBL1122972, “Angiotensin-converting enzyme inhibitors: synthesis and biological activity of acyl tripeptide analogues of enalapril” (J Med Chem, 1985).
Square brackets hold non-standard residues; d marks the D form. Peptide text beside a SMILES is read from it. * marks the point of attachment. Hydrocinnamoyl = O=C(CCc1ccccc1)*; pGlu = O=C1CC[C@@H](C(=O)O)N1; Bz = O=C(c1ccccc1)*

target: Angiotensin-converting enzyme (Homo sapiens, UniProt P12821); assay: In vitro inhibitory activity against Angiotensin I converting enzyme; conditions: read-out: I50
Sequence (P12821 whole entry): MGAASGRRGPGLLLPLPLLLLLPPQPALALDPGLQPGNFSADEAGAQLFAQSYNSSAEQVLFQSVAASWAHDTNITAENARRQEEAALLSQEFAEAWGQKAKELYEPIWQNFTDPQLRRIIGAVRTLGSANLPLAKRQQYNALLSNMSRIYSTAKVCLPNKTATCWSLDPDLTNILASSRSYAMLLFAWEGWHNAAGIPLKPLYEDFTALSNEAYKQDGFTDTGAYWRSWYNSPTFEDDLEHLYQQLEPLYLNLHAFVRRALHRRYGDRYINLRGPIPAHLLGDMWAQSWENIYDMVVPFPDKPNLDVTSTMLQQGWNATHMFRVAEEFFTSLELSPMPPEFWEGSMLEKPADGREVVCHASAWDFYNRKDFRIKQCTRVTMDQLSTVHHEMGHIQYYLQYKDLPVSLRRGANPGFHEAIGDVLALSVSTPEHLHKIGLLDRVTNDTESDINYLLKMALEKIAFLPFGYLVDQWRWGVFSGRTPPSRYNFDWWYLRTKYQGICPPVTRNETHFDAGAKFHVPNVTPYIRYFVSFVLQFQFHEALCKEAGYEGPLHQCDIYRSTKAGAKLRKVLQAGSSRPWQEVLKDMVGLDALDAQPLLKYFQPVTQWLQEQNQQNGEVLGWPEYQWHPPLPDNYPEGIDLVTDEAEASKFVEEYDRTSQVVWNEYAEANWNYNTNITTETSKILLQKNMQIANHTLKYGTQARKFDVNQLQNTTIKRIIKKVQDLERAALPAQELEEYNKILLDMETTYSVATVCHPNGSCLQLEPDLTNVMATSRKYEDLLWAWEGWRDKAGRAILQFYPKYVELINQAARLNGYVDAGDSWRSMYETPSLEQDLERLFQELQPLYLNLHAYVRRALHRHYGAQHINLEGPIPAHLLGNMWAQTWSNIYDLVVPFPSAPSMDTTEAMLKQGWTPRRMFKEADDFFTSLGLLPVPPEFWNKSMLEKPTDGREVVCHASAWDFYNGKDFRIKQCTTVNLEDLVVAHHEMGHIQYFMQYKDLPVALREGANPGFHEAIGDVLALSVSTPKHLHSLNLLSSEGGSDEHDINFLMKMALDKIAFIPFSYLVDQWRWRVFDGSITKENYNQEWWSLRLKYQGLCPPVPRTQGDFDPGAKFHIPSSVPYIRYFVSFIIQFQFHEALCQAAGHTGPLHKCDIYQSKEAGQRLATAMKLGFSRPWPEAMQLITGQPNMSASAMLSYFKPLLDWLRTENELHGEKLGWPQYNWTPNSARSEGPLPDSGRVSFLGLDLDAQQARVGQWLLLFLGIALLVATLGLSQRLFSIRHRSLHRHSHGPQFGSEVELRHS

SMILES | IC50
C[C@H](NC(=O)CCc1ccccc1)C(=O)N1CCC[C@H]1C(=O)O (Hydrocinnamoyl-Ala-Pro-OH) | 330 µM
C[C@H](N[C@@H](C(=O)O)[C@H](Cc1ccccc1)NC(=O)c1ccccc1)C(=O)N1CCC[C@H]1C(=O)O | 1.4 µM
C[C@H](NC(=O)[C@H](Cc1ccccc1)NC(=O)c1ccccc1)C(=O)N1CCC[C@H]1C(=O)O (Bz-Phe-Ala-Pro-OH) | 2.7 µM
O=C(CCC(=O)N1CCCC1C(=O)O)CCc1ccccc1 (centres undefined) | 2600 µM
C[C@H](NC(=O)[C@@H](N)Cc1ccccc1)C(=O)N1CCC[C@H]1C(=O)O (H-Phe-Ala-Pro-OH) | 1.4 µM
C[C@H](NC(=O)[C@H](Cc1ccccc1)NC(=O)[C@H](CCCCN)NC(=O)[C@@H]1CCC(=O)N1)C(=O)N1CCC[C@H]1C(=O)O ([pGlu]KFAP-OH) | 5 µM

The next compounds have a lower IC50 than those just listed; values first:

IC50 | SMILES
0.017 µM | C[C@H](N[C@@H](CNC(=O)c1ccccc1)C(=O)O)C(=O)N1CCC[C@H]1C(=O)O
0.0077 µM | C[C@H](N[C@H](C(=O)O)[C@H](Cc1ccccc1)NC(=O)c1ccccc1)C(=O)N1CCC[C@H]1C(=O)O
0.0029 µM | CC(NC(C(=O)O)C1CCCN1C(=O)c1ccccc1)C(=O)N1CCCC1C(=O)O (centres undefined)
0.003 µM | C[C@H](N[C@@H](C[C@H](Cc1ccccc1)NC(=O)c1ccccc1)C(=O)O)C(=O)N1CCC[C@H]1C(=O)O
0.04 µM | C[C@H](NC(CNC(=O)c1ccccc1)C(=O)O)C(=O)N1CCC[C@H]1C(=O)O (some centres undefined)
0.0094 µM | CC(=O)N1CCCC1C(NC(C)C(=O)N1CCCC1C(=O)O)C(=O)O (centres undefined)
0.0048 µM | C[C@H](N[C@H](C[C@H](Cc1ccccc1)NC(=O)c1ccccc1)C(=O)O)C(=O)N1CCC[C@H]1C(=O)O
0.7 µM | C[C@H](N[C@H](C(=O)O)[C@@H]1CCCN1)C(=O)N1CCC[C@H]1C(=O)O
